Data: patent publication US20060018846A1, “Animo substituted hydroxyphenyl benzophenone derivatives” (priority 2002, published 2006)

Legend:
[1] = UV spectrum (absorption maximum and molar extinction); type: physicochemical
Text: UV Spectrum (in Dioxan) • Maximum at 359 nm; e=34724
UV Spectrum (in Dioxan): • Maximum at 360 nm; e=37900
UV Spectrum (in Dioxan): • Maximum at 359 nm; e=35080
UV-Spectrum in Dioxan: Max. 351 nm, mol Ext. 65551
UV Spectrum in Ethanol: Max. 354 nm, mol. Ext. 65296

[2] = Solubility in Finsolve TN (C 12-15 alkylbenzoate); type: physicochemical
Text: It has a good solubility for example in Finsolve TN (C 12-15 alkylbenzoate)>10%.
The obtained compound is an amorphous, yellow powder Solubility in Finsolve TN>30%

SMILES | UV spectrum: Max. (wavelength) ([1]; in Ethanol) | UV spectrum: mol. Ext. ([1]; in Ethanol) | Solubility in Finsolve TN (C 12-15 alkylbenzoate) [2] | UV spectrum: 2. Maximum (wavelength) ([1]; in Dioxan) | UV spectrum: Maximum (wavelength; 1. Maximum where two are given) ([1]; in Dioxan) | UV spectrum: e / mol Ext. at the maximum (1. Maximum where two are given) ([1]; in Dioxan) | UV spectrum: e at 2. Maximum ([1]; in Dioxan)
CCN(CC)c1ccc(C(=O)c2ccccc2C(=O)OCC(C)(C)COC(=O)c2ccccc2C(=O)c2ccc(N(CC)CC)cc2O)c(O)c1 [Example 12] | 354 nm | 65296 | > 30% |  |  |  | 
CCN(CC)c1ccc(C(=O)c2ccccc2C(=O)Nc2ccc(-c3nc4ccc(C)cc4s3)cc2)c(O)c1 [Example 2] |  |  |  | 360 nm | 336 nm | 57318 | 49032
CCN(CC)c1ccc(C(=O)c2ccccc2C(=O)N(CCO)CCO)c(O)c1 [Example 10] |  |  |  |  | 359 nm | 35080 | 
CCN(CC)c1ccc(C(=O)c2ccccc2C(=O)Nc2ccc(C(N)=O)cc2)c(O)c1 [Example 4] |  |  |  |  | 358 nm | 34848 | 
CCN(CC)c1ccc(C(=O)c2ccccc2C(=O)Nc2ccccc2)c(O)c1 [Example 8] |  |  |  |  | 359 nm | 34724 | 
CCN(CC)c1ccc(C(=O)c2ccccc2C(=O)OC/C=C/COC(=O)c2ccccc2C(=O)c2ccc(N(CC)CC)cc2O)c(O)c1 [Example 11] |  |  | > 10% |  | 351 nm | 65551 | 
CCN(CC)c1ccc(C(=O)c2ccccc2C(=O)N2CCOCC2)c(O)c1 [Example 9] |  |  |  |  | 360 nm | 37900 | 
CCN(CC)c1ccc(C(=O)c2ccccc2C(=O)OC2CC(C)CCC2C(C)C)c(O)c1 (centres unmarked) [Example 6] |  |  |  |  | 351 nm | 38565 | 
